Measurements taken from article PMC7926627, “Fine-Tuning the Biological Profile of Multitarget Mitochondriotropic Antioxidants for Neurodegenerative Diseases” (Antioxidants, 2021).

Key:
[1] = target: T1, eeAChE (electric eel acetylcholinesterase) (Electrophorus electricus, UniProt O42275); experiment: eeAChE inhibition, Ellman's method; assay type: biochemical
T1 construct: Eel acetylcholinesterase (eeAChE, E.C. 3.1.1.7, from Electrophorus electricus); purchased Sigma Aldrich
Experimental: (§2) The eeAChE and eqBChE inhibitory activities of the compounds under study were determined following the Ellman’s method [32, 33]
(§3) Substrate solutions (ATCI or BCTI) were prepared in deionized water (conductivity ˂ 0.1 µS.cm-
(§4) Evaluation of eel acetylcholinesterase and equine butyrylcholinesterase inhibitory
(§5) The eeAChE and eqBChE inhibitory activities of the compounds under study were evaluated following the Ellman’s method [1, 2]. Briefly, a mixture containing sodium phosphate buffer, enzyme (final concentration: eeAChE 0.05 U/mL and eeBChE 0.05 U/mL), DTNB (final concentration: 400 µM) and the test compounds/reference inhibitors were preincubated for 5 minutes at 30 °C in a 96-well microplate (BRANDplates, pureGradeTM, BRAND GMBH, Wertheim, Germany). In control experiments, sodium phosphate buffer was used instead of the
(§6) ºC in a microplate reader (BioTek Synergy HT from BioTek Instruments, Winooski, VT, USA).
(§7) The rates of the substrate enzymatic hydrolysis were determined, normalized and plotted against the respective inhibitor concentration. IC50 values were obtained from the dose-response curves
(§8) and were expressed as mean ± standard deviation. IC50 values were determined in at least three
(§9) independent experiments, each performed at least in triplicates.

[2] = tested on: differentiated SH-SY5Y cells; experiment: Resazurin reduction assay (cytotoxicity); assay type: cell-based, human; conditions: 24 h
Experimental: For cytotoxicity studies, differentiated SH-SY5Y cells were incubated with increasing concentrations of the test compounds (0.20–100 µM) for 24 h. Controls were treated with culture media containing 0.1% DMSO. Cell viability was estimated using two different methods: resazurin reduction assay and NR uptake assay. […]
days. The cultures were passaged once a week by trypsinization (0.25 % trypsin/1 mM EDTA).
To avoid phenotypic changes, the cells used for all experiments were taken between 19th and 28th passages. Cells were differentiated as described previously by Fernandes et al.. Briefly, SH-SY5Y cells were seeded onto 96-well plates at a density of 25,000 cells/cm2 in cell culture medium with trans-retinoic acid (RA) (final concentration of 10 µM) and incubated for 3 days at 37 °C in a humidified, 5% CO2−95% air atmosphere. The cell culture medium was then removed and replaced with medium supplemented with 12-O-tetradecanoylphorbol-13-acetate (TPA) (final concentration 80 nM), and cells were incubated for 3 days. Stock solutions of RA (10 mM) and TPA (80 µM) were prepared in DMSO.
1.5.3. Cytotoxicity assays
1.5.3.1. Resazurin reduction assay
Resazurin is a non-fluorescent, non-toxic water-soluble dye able to permeate through cell […]
highly fluorescent resorufin [8, 9]. Since the conversion of resazurin into resorufin occurs mostly in mitochondria, the amount of resorufin produced can be used as indicator of metabolic activity. The quantity of resorufin production is proportional to the number of viable cells in culture and can be quantified fluorometrically or colorimetrically.
Resazurin reduction assay was performed as previously described by Fernandes et al..
Briefly, after the 24 h incubation periods with the test compounds, the cell culture medium was removed and replaced with fresh culture medium with resazurin (10 μg/mL) prepared in cell culture medium. Differentiated SH-SY5Y cells were incubated for 2 h at 37 °C in a humidified 5% CO2−95% air atmosphere. Then, the fluorescence was read in a multiwell microplate reader (PowerWave XS from BioTek Instruments, Vermont, US), using an excitation wavelength of 540 nm and an emission wavelength of 590 nm. The results were expressed as the percentage of resazurin reduction relative to that of the control (non-treated) cells [resazurin reduction (% of […]
1.5.3.2. Neutral red uptake assay
The neutral red (NR) uptake assay is based on the ability of viable cells to incorporate the supravital dye NR and retain it inside the lysosomes. NR uptake assay was performed as previously described by Fernandes et al. Briefly, after the 24 h incubation periods with the test compounds, the cell culture medium was removed and NR solution ([…]) in fresh cell culture medium was added. Differentiated SH-SY5Y cells and Caco-2 cells were incubated for 2 h and 1 h, respectively, at 37 °C in a humidified, 5% CO2−95% air atmosphere. Then, the cell culture medium was removed and replaced by ethanol absolute/distilled water (1:1) with 5 % acetic acid to liberate the dye from the viable cells. The absorbance was measured at 540 nm in a […]

[3] = target: T2, hBChE (Homo sapiens, UniProt P06276, N45Q/N483Q/N509Q/N514Q); experiment: Recombinant hBChE inhibition, Ellman's buffer; assay type: biochemical
T2 construct: made in house
Experimental: (§1) Recombinant hAChE and hBChE were produced and purified as previously described. Test compounds were dissolved in methanol 100 % to prepare stock solutions at 40 mM and subsequently diluted in water to reach the desired concentrations. Recombinant hAChE and hBChE activities were measured in presence of appropriate compound concentrations by spectrophotometry at 412 nm and 25 °C in a 1 mL cuvette containing Ellman’s buffer (0.5 mM DTNB, 0.1% BSA, 0.1 M phosphate, pH 7.4). Measurements were performed at least in duplicate for each tested concentration and final methanol concentrations were kept below 5%.

[4] = Chromatographic hydrophobicity index by gradient RP-HPLC at pH 2.3
Experimental: Chromatographic hydrophobicity indexes (CHIs) at pH 2.3 were determined using an experimental protocol described elsewhere [45, 46] and included in the supplementary information.
Evaluation of the chromatographic hydrophobicity index
Chromatographic hydrophobicity indexes (CHIs) values were determined using the
retention times (tR) of samples and a mixture of reference compounds. The data was acquired on
a Shimadzu high-performance liquid chromatograph SPD-M20A system (Shimadzu, Kyoto,
Japan) with a Luna C18 (2) column (Phenomenex, CA, USA) 150×4.6 mm, 5 µm. In CHI
determinations at pH 2.3, mobile phase A was aqueous solution of acetic acid 1 % (v/v) (pH 2.3),
and mobile phase B was acetonitrile. The following gradient program was applied: 1 mL/min
Calibration plots were obtained using a mixture of the following compounds:
paracetamol, theophylline, caffeine, benzimidazole, colchicine, carbamazepine, indole,
propiophenone, butyrophenone, valerophenone, and heptanophenone (Table S1, Figure S2).
hydrophobicity index (CHI) values were calculated as previously described [13, 14].

[5] = target: T3, hMAO-A (Homo sapiens, UniProt P21397); experiment: hMAO-A inhibition, kynuramine substrate; assay type: biochemical
T3 construct: purchased Sigma Aldrich; host or cells: insect cells (BTI-TN-5B1-4), baculovirus
T3 sequence (P21397 1-527): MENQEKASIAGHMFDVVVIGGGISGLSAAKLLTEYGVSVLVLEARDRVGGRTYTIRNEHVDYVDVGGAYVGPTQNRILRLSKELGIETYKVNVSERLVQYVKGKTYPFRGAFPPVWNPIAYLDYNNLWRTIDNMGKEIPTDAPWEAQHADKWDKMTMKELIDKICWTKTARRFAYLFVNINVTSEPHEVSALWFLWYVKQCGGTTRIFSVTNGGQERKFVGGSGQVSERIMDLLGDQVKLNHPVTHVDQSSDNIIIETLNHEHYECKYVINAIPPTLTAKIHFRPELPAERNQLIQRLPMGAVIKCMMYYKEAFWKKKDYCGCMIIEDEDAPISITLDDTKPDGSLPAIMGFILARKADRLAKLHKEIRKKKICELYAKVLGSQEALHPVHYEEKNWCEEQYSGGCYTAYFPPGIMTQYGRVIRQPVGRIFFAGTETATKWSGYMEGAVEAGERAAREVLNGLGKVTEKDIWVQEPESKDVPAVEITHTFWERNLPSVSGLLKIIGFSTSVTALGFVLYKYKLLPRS
Experimental: The inhibitory activity of lipophilic TPP^+ cations on hMAO-A and hMAO-B was studied using an experimental protocol described elsewhere [29, 40]
Evaluation of human monoamine oxidase (hMAO) inhibitory activity The human monoamine oxidase (hMAO) inhibitory outline was assessed in microsomal MAO isoforms prepared from insect cells (BTI-TN-5B1-4) infected with recombinant baculovirus containing cDNA inserts for hMAO-A or hMAO-B an d by measuring the enzymatic conversion rates of kynuramine into 4-hydroxyquinoline. The appropriate amounts of hMAO-A and hMAO-B were adjusted to obtain, in our experimental conditions, the same maximum
All assays were performed in sodium phosphate buffer solution 50 mM pH 7.4.
The compounds under study and reference inhibitors were pre-incubated at 37 °C for 10
concentration: 2×Km) in 96-well microplates (BRANDplates, pureGradeTM, BRAND GMBH, Wertheim, Germany). Then, the reaction was started with the addition of hMAO-A or hMAO-B.
Initial velocities were determined spectrophotometrically in a microplate reader (BioTek Synergy HT from BioTek Instruments, Winooski, VT, USA) at 37 °C by measuring the formation of 4-
The initial velocities, obtained from the linear phase of product formation, were normalized and plotted against the respective inhibitor concentration. IC50 values were obtained from dose-response curves and were expressed as mean ± standard deviation. IC50 values were determined from at least three independent experiments, each performed in triplicate.

[6] = target: T4, hAChE (Homo sapiens, UniProt P22303); experiment: Recombinant hAChE inhibition, Ellman's buffer; assay type: biochemical
T4 construct: made in house
Experimental: as §1

[7] = target: T5, eqBChE (equine butyrylcholinesterase) (Equus caballus, UniProt P81908); experiment: biochemical
T5 construct: butyrylcholinesterase (eqBuChE, E.C. 3.1.1.8, from equine serum); purchased Sigma Aldrich; host or cells: equine serum
T5 sequence (P81908 whole entry): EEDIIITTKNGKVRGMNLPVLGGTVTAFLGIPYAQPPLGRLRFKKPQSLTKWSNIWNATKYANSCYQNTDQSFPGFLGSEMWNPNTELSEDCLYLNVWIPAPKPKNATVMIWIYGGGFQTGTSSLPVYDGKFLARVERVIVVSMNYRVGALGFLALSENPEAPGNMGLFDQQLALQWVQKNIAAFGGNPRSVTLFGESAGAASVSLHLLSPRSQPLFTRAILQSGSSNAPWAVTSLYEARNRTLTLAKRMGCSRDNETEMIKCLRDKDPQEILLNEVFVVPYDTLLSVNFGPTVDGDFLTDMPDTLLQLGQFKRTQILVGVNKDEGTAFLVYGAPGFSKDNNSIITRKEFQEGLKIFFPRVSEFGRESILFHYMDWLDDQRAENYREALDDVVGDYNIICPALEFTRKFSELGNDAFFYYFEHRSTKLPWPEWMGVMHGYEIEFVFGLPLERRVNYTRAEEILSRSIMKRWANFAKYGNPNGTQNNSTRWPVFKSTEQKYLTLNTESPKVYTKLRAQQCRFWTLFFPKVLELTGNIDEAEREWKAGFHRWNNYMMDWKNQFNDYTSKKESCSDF
Experimental: as §2, §3, §4, §5, §6, §7, §8, §9

T4 sequence (P22303 32-574 limits assumed): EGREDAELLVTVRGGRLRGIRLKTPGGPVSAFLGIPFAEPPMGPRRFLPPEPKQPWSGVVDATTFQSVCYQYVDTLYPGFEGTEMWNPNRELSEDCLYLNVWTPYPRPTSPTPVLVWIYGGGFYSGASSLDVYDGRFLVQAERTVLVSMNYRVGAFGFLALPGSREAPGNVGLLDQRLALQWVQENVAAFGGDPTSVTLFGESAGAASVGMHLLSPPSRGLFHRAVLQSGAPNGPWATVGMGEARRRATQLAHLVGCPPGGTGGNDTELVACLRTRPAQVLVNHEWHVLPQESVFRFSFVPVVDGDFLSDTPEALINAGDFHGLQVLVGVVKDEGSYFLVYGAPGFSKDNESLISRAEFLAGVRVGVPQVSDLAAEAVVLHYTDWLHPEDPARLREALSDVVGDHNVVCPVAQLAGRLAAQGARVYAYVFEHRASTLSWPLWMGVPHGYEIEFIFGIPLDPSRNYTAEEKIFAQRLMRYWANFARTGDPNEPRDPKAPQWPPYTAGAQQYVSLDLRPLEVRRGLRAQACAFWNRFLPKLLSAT
T1 sequence (O42275 24-633): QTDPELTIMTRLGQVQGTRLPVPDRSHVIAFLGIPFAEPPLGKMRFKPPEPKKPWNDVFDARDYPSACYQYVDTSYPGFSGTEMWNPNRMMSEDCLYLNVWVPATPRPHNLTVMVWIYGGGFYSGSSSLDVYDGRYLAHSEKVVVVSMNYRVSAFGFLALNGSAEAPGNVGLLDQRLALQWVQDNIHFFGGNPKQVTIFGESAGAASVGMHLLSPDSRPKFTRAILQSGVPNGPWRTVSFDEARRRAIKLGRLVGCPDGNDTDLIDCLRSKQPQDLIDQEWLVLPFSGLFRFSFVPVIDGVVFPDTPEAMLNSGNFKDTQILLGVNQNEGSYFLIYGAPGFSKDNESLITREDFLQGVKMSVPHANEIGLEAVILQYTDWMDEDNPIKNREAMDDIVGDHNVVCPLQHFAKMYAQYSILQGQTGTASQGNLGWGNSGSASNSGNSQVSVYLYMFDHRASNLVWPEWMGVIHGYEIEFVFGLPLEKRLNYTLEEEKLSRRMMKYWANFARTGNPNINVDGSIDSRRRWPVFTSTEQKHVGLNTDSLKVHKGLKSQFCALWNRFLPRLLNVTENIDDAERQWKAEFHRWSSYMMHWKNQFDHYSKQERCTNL
T2 sequence (P06276 29-557 N45Q/N483Q/N509Q/N514Q limits assumed): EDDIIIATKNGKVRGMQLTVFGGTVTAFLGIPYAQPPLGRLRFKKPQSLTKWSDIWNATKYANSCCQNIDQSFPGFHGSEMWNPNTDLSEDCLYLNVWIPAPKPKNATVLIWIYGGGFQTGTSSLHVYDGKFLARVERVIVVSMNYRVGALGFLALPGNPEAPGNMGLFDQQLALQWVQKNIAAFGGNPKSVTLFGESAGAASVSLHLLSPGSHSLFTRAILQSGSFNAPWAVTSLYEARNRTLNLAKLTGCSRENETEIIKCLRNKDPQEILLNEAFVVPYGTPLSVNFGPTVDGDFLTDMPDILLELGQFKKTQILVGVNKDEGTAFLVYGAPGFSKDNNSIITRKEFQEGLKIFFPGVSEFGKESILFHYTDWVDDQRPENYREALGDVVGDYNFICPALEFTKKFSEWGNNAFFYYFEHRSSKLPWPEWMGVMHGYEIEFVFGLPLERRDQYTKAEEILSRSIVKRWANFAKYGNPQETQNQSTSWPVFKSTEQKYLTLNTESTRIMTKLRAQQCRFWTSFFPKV

## O=C(/C=C/C=C/c1ccc2c(c1)OCO2)NCCCC[P+](c1ccccc1)(c1ccccc1)c1ccccc1.[Br-] [Compound 2, (4-((2E,4E)-5-(Benzo[d][1,3]dioxol-5-yl)penta-2,4-dienamido)butyl)triphenylphosphonium bromide]
[1]
  IC50: 6390 ± 280 nM
[2]
  concentrations in which the resazurin reduction was significantly decreased: ≥ 50 µM
[2]; at concentrations above 25 µM
  resorufin fluorescence (% of control): < 85%
[3]
  IC50: 200 ± 40 nM
  SI (2): hBChE selectivity index = IC50(hAChE)/IC50(hBChE): 55
[4]
  CHI: 42.8
[5]
  IC50: 888 ± 22 nM
[6]
  IC50: 11000 ± 1000 nM
[7]
  IC50: 28.2 ± 1.4 nM
  SI (1): eqBChE selectivity index = IC50(eeAChE)/IC50(eqBChE): 226

## O=C(/C=C/C=C/c1ccc2c(c1)OCO2)NCCCCCC[P+](c1ccccc1)(c1ccccc1)c1ccccc1.[Br-] [Compound 3, (6-((2E,4E)-5-(Benzo[d][1,3]dioxol-5-yl)penta-2,4-dienamido)hexyl)triphenylphosphonium bromide]
[1]
  IC50: 5740 ± 320 nM
[2]; at concentrations above 12.5 µM
  resorufin fluorescence (% of control): < 85%
[3]
  IC50: 3000 ± 400 nM
  SI (2): hBChE selectivity index = IC50(hAChE)/IC50(hBChE): 0.67
[4]
  CHI: 45.8
[5]
  IC50: 1230 ± 130 nM
[6]
  IC50: 2000 ± 200 nM
[7]
  IC50: 17.9 ± 0.9 nM
  SI (1): eqBChE selectivity index = IC50(eeAChE)/IC50(eqBChE): 314

## O=C(/C=C/C=C/c1ccc(O)c(O)c1)NCCCC[P+](c1ccccc1)(c1ccccc1)c1ccccc1.[Br-] [Compound 4, (4-((2E,4E)-5-(3,4-Dihydroxyphenyl)penta-2,4-dienamido)butyl)triphenylphosphonium bromide]
[1]
  IC50: 2230 ± 120 nM
[2]; concentrations up to 100 µM
  effect on resazurin reduction: did not markedly affect
[3]
  IC50: 3000 ± 200 nM
  SI (2): hBChE selectivity index = IC50(hAChE)/IC50(hBChE): 7.3
[4]
  CHI: 34.4
[5]
  IC50: 5170 ± 540 nM
[6]
  IC50: 22000 ± 2000 nM
[7]
  IC50: 61.9 ± 4.2 nM
  SI (1): eqBChE selectivity index = IC50(eeAChE)/IC50(eqBChE): 36

## O=C(/C=C/C=C/c1ccc(O)c(O)c1)NCCCCCC[P+](c1ccccc1)(c1ccccc1)c1ccccc1.[Br-] [Compound 5, (6-((2E,4E)-5-(3,4-Dihydroxyphenyl)penta-2,4-dienamido)hexyl)triphenylphosphonium bromide]
[1]
  IC50: 2140 ± 60 nM
[2]
  concentrations in which the resazurin reduction was significantly decreased: ≥ 50 µM
[2]; at concentrations above 25 µM
  resorufin fluorescence (% of control): < 85%
[3]
  IC50: 23000 ± 2000 nM
  SI (2): hBChE selectivity index = IC50(hAChE)/IC50(hBChE): 0.39
[4]
  CHI: 37.2
[5]
  IC50: 2170 ± 280 nM
[6]
  IC50: 9000 ± 500 nM
[7]
  IC50: 34.1 ± 2.9 nM
  SI (1): eqBChE selectivity index = IC50(eeAChE)/IC50(eqBChE): 62
